Patent publication US20230204599A1, “TRIAGING METHOD USING CELL FREE NUCLEOSOME LEVELS” (Belgian Volition SRL (BE/BE), priority 2020, published 2023)

What was measured:
sepsis induced in mice = details: cited from earlier work
[1] = cited from earlier work
[2] = test system: white cells in fresh healthy whole blood; assay: NETs formation induced in fresh healthy whole blood, H3.1-nucleosome ELISA and Bioanalyzer electrophoresis of plasma; format: cell-based, human; details: 2 healthy volunteers
Description: We collected whole blood samples from two healthy volunteers, in whom low levels of circulating NET material would be expected, in EDTA plasma blood collection tubes and in heparin plasma blood collection tubes. The two EDTA plasma blood collection tubes were centrifuged immediately to separate the cellular and plasma fractions to minimise contamination by large chromatin (including NET material) and the plasma was transferred to cryotubes and frozen. The two heparin plasma blood collection tubes were incubated at room temperature for 1 hour with gentle rotation of the tubes. The tubes were then centrifuged and the plasma was transferred to cryotubes and frozen.
The samples were assayed for nucleosomes containing histone isoform H3.1 (H3.1-nucleosomes) using an ELISA procedure in duplicate. In brief, 20 μl of sample were added to a microtiter well containing magnetic particles precoated with an anti-histone H3.1 antibody. The sample was incubated and the magnetic particles were isolated and washed. An anti-nucleosome antibody directed to bind to a conformational nucleosome epitope conjugated to horse radish peroxidase was added to the magnetic particles. The particles were incubated and then isolated and washed. The bound anti-nucleosome antibody was measured using a coloured substrate reaction. […]

[3] = single 25 mg/m^2 bolus intravenous dose

## COc1cccc2c1C(=O)c1c(O)c3c(c(O)c1C2=O)C[C@@](O)(C(=O)CO)C[C@@H]3O[C@H]1C[C@H](N)[C@@H](O)[C@H](C)O1 [epirubicin]
Sepsis induced in mice; lethal sepsis by cecal ligation and puncture, death in 100% of mice within 72 hours without treatment
  survival: 75%
Sepsis induced in mice; septic mice
  inflammation measured by circulating inflammatory biomarkers: reduction in inflammation

## DNase
[1]; in vivo, iv
  half-life: 3 to 4 h

## COc1cccc2c1C(=O)c1c(O)c3c(c(O)c1C2=O)C[C@@](O)(C(=O)CO)C[C@@H]3O[C@H]1C[C@H](N)[C@H](O)[C@H](C)O1 [doxorubicin]
[1]; [3]
  serum concentration: 10 µg/mL
  time serum level remains above 3 μg/ml: around 4 days

## heparin
[2]; blood collection tubes incubated 1 hour at room temperature
  NET material level in plasma (H3.1-nucleosome ELISA): high
[2]; retention time approximately 110 seconds
  level of NET material in plasma (DNA fragment size, Bioanalyzer): high
